The source of these data is ChEMBL document CHEMBL6182833, “Design, synthesis and antiviral evaluation of triazole-linked 7-hydroxycoumarin-monoterpene conjugates as inhibitors of RSV replication” (RSC Med Chem, 2025).

By CC50 is commonly meant the concentration that lowers cell viability or growth by half. What is called pIC50 is −log10 of the IC50, conventionally taken in molar units. The term pEC50 denotes the EC50 on a negative log10 scale, so that one unit is a factor of ten.

pEC50, pIC50: −log10 of the molar value. Calls of active or inactive are those of the source. No cut-off for these calls is given here.

In one series the test system is HEp-2. The experiment in a line: Cytotoxicity against human HEp-2 cells assessed as cell growth inhibition measured after 24 hrs by MTT assay. It is filed as functional. (Tetrazolium dyes change colour on reduction, which living cells bring about.)
The test system of series [1] is Human orthopneumovirus. The series is described as follows: Antiviral activity against Respiratory syncytial virus type A infected in human HEp-2 cells assessed as inhibition of viral replication preincubated with cells followed by viral infection for 1 hr followed by virus washout and further incubated with compound for 6 days by ELISA method. The settings on record: for pIC50: read-out: IC50; for IC50: read-out: pIC50 (converted). It is filed as functional, organism-based. On the technique in general: ELISA stands for enzyme-linked immunosorbent assay.

A short description of series [2]: Selectivity index, ratio of CC50 for human HEp-2 cells to IC50 for Respiratory syncytial virus type A infected in human HEp-2 cells. In kind it is cell-based. The settings on record: read-out: Ratio CC50/IC50.
For series [3], the system named is Human orthopneumovirus. The series is described as follows: Antiviral activity against Respiratory syncytial virus type B infected in human HEp-2 cells assessed as inhibition of viral replication preincubated with cells followed by viral infection for 1 hr followed by virus washout and further incubated with compound for 6 days by ELISA method. It is filed as functional, organism-based. Particulars: for pIC50: read-out: IC50; for IC50: read-out: pIC50 (converted).

A short description of series [4]: Selectivity index, ratio of CC50 for human HEp-2 cells to IC50 for Respiratory syncytial virus type B infected in human HEp-2 cells. The settings on record: read-out: Ratio CC50/IC50. It is filed as cell-based.
The test system of series [5] is Human orthopneumovirus. The experiment in a line: Antiviral activity against Respiratory syncytial virus type A infected in human HEp-2 cells assessed as inhibition of viral replication preincubated with cells and simultaneously with virus and measured after 25 hrs by ELISA method. It is filed as functional, organism-based.
Series [6] has as its system Human orthopneumovirus. The experiment in a line: Antiviral activity against Respiratory syncytial virus type A infected in human HEp-2 cells assessed as inhibition of viral replication preincubated with cells followed by compound washout followed by viral infection and measured after 25 hrs by ELISA method. In kind it is functional, organism-based.

In the case of `CC(C)=CCCC(C)=CCn1cc(COc2ccc3c4c(c(=O)oc3c2)CCCC4)nn1`, the CC50 with HEp-2 is 279 µM. Besides, the pIC50 in the series on Human orthopneumovirus [1] was 6.34; in the series with Human orthopneumovirus [3] it was 5.92. Moreover, the results for the IC50 in the series on Human orthopneumovirus [1] and with Human orthopneumovirus [3] were 0.457 µM and 1.2 µM, respectively. The selectivity ratio stood at 605 in series [2] and 233 in series [4]. In the series with Human orthopneumovirus [5], the result was inactive.

As to `CC1(C)[C@H]2CC=C(Cn3cc(COc4ccc5c6c(c(=O)oc5c4)CCCC6)nn3)[C@@H]1C2`, the 50% cytotoxic concentration (CC50) in the series on HEp-2 came to 30.1 µM. For the same molecule, the pIC50 in the series on Human orthopneumovirus [1] is 6.22; in the series on Human orthopneumovirus [3], 5.89. Besides, the selectivity ratio stood at 50 in series [2] and 23.3 in series [4]. Besides, the Activity entry in the series on Human orthopneumovirus [5] and with Human orthopneumovirus [6] was “Weak_effect” each time.

As to `CC(C)=CCC/C(C)=C/CCOc1ccc2c(C)cc(=O)oc2c1`, the CC50 in the series on HEp-2 came out at 483 µM. Further, the pIC50 in the series on Human orthopneumovirus [1] is 4.33; in the series with Human orthopneumovirus [3], 4.28. In addition, the selectivity ratio in series [2] stood at 10.3; in series [4], 9.2.

On to `CC(C)=CCC/C(C)=C/Cn1cc(COc2ccc3c(C)cc(=O)oc3c2)nn1`, for which the CC50 with HEp-2 came to 15 µM. Moreover, the pIC50 with Human orthopneumovirus [1] is 5.21; with Human orthopneumovirus [3] it was 5.09. Further, the values for the IC50 in the series on Human orthopneumovirus [1] and in the series on Human orthopneumovirus [3] were 6.17 µM and 0.151 µM, respectively. Also, the selectivity ratio in series [2] was determined as 2.5; in series [4] it was 1.8.

Take `CC1(C)[C@@H]2CC=C(Cn3cc(COc4ccc5c6c(c(=O)oc5c4)CCCC6)nn3)[C@H]1C2`: the CC50 in the series on HEp-2 amounted to 25.5 µM. The results for the negative logarithm of the IC50 (pIC50) in the series on Human orthopneumovirus [1] and in the series with Human orthopneumovirus [3] were 5.39 and 5.46, respectively. In the series with Human orthopneumovirus [1], the IC50 is 4.07 µM. Further, the selectivity ratio in series [2] came to 6.3; in series [4], 7.2.

As for `CC(C)=CCCC(C)=CCn1cc(COc2ccc3c4c(c(=O)oc3c2)CCC4)nn1`, the CC50 in the series with HEp-2 was 19.1 µM. Also, the pIC50 with Human orthopneumovirus [1] is 5.24; in the series on Human orthopneumovirus [3], 5.19. Besides, the IC50 was 5.75 µM with Human orthopneumovirus [1] and 6.46 µM in the series with Human orthopneumovirus [3]. Moreover, the selectivity ratio in series [2] came to 3.3; in series [4], 2.9.

Regarding `CC(C)=CCC/C(C)=C/CCOc1ccc2c3c(c(=O)oc2c1)CCC3`, in the series on HEp-2, the cytotoxic concentration (CC50) stood at 26.6 µM. The pIC50 with Human orthopneumovirus [1] was less than 4.59. Moreover, the selectivity ratio in series [2] is less than 1; in series [4] it was 1.8. Besides, in the series with Human orthopneumovirus [3], the negative logarithm of the EC50 (pEC50) was 4.82.

On to `CC(C)CCCC(C)CCn1cc(COc2ccc3c(-c4ccccc4)cc(=O)oc3c2)nn1` (stereo not given), for which the CC50 in the series on HEp-2 came to 14.6 µM. For the same molecule, the pIC50 in the series with Human orthopneumovirus [1] is 5.39; in the series with Human orthopneumovirus [3], 5.28. The results for the IC50 in the series on Human orthopneumovirus [1] and in the series with Human orthopneumovirus [3] were 1.66 µM and 0.229 µM, respectively. Besides, the selectivity ratio turned out to be 3.5 in series [2] and 2.8 in series [4].

Consider `Cc1cc(=O)oc2cc(OCc3cn(CC4=CC[C@H]5C[C@@H]4C5(C)C)nn3)ccc12`, for which the half-maximal cytotoxic concentration (CC50) in the series on HEp-2 was 14.3 µM. In addition, the values for the negative-log IC50 (pIC50) in the series with Human orthopneumovirus [1] and in the series on Human orthopneumovirus [3] were 5.19 and 5.15, respectively. Also, the selectivity ratio in series [2] was determined as 2.2; in series [4], 2.

With `CC1(C)[C@H]2CC=C(Cn3cc(COc4ccc5c(-c6ccccc6)cc(=O)oc5c4)nn3)[C@@H]1C2`, the cytotoxic concentration (CC50) in the series with HEp-2 stood at 13.7 µM. In addition, the pIC50 in the series with Human orthopneumovirus [1] was greater than 6.70; with Human orthopneumovirus [3], 5.80. The selectivity ratio in series [2] was greater than 88; in series [4], 8.5.

On to `CC1(C)[C@@H]2CC=C(Cn3cc(COc4ccc5c6c(c(=O)oc5c4)CCC6)nn3)[C@H]1C2`, for which the CC50 in the series with HEp-2 turned out to be 52.7 µM. Also, the values for the pIC50 with Human orthopneumovirus [1] and in the series on Human orthopneumovirus [3] were 5.16 and 5.14, respectively. For the same molecule, the values for the selectivity ratio in series [2] and in series [4] were 7.6 and 7.3, respectively.

In the case of `CC(C)c1ccc(Cn2cc(COc3ccc4c5c(c(=O)oc4c3)CCC5)nn2)cc1`, in the series with HEp-2, the CC50 amounted to 38.5 µM. For the same molecule, the negative-log IC50 (pIC50) with Human orthopneumovirus [1] is 4.66; in the series on Human orthopneumovirus [3], 4.59. Moreover, the selectivity ratio in series [2] came to 1.8; in series [4], 1.5.

Turning to `CC1(C)[C@@H]2CC=C(COc3ccc4c5c(c(=O)oc4c3)CCC5)[C@H]1C2`, in the series with HEp-2, the cytotoxic concentration (CC50) is 416 µM. In addition, the pIC50 in the series with Human orthopneumovirus [1] is 5.39. The results for the selectivity ratio in series [2] and in series [4] were 100 and 81.6, respectively. For the same molecule, in the series with Human orthopneumovirus [3], the pEC50 was 5.29.

Take `Cc1cc(=O)oc2cc(OCC3=CC[C@H]4C[C@@H]3C4(C)C)ccc12`: the CC50 in the series with HEp-2 stood at 796 µM. The values for the pIC50 with Human orthopneumovirus [1] and in the series with Human orthopneumovirus [3] were 4.54 and 3.62, respectively. Moreover, the selectivity ratio in series [2] amounted to 27.4; in series [4], 3.3.

On to `CC(C)CCCC(C)CCn1cc(COc2ccc3c4c(c(=O)oc3c2)CCC4)nn1` (stereo not given), for which the CC50 with HEp-2 turned out to be 264 µM. Besides, the values for the pIC50 in the series on Human orthopneumovirus [1] and with Human orthopneumovirus [3] were 5.77 and 6.64, respectively. Further, the IC50 is 4.07 µM with Human orthopneumovirus [1] and 5.25 µM in the series on Human orthopneumovirus [3]. For the same molecule, the selectivity ratio came out at 160 in series [2] and 1150 in series [4]. The Activity entry in the series with Human orthopneumovirus [5] and with Human orthopneumovirus [6] was “Weak_effect” each time.

Consider `Cc1cc(=O)oc2cc(OCc3cn(CCC(C)CCCC(C)C)nn3)ccc12` (stereo not given), for which the CC50 in the series on HEp-2 came out at 16.1 µM. Also, the pIC50 is 5.37 with Human orthopneumovirus [1] and 5.41 in the series on Human orthopneumovirus [3]. For the same molecule, the IC50 is 4.27 µM in the series with Human orthopneumovirus [1] and 3.89 µM in the series with Human orthopneumovirus [3]. Moreover, the selectivity ratio in series [2] came to 3.8; in series [4], 4.1.

For `CC(C)CCCC(C)CCn1cc(COc2ccc3c4c(c(=O)oc3c2)CCCC4)nn1` (stereo not given), the CC50 in the series with HEp-2 was 22.2 µM. The pIC50 in the series on Human orthopneumovirus [1] is 5.43; in the series on Human orthopneumovirus [3] it was 5.35. Besides, the IC50 with Human orthopneumovirus [1] is 3.72 µM; in the series on Human orthopneumovirus [3] it was 4.47 µM. Besides, the figures for the selectivity ratio in series [2] and in series [4] were 6.1 and 4.9, respectively.

Turning to `CC(C)c1ccc(Cn2cc(COc3ccc4c5c(c(=O)oc4c3)CCCC5)nn2)cc1`, the 50% cytotoxic concentration (CC50) in the series on HEp-2 was 37.7 µM. Further, the pIC50 is 4.66 with Human orthopneumovirus [1] and 4.63 in the series with Human orthopneumovirus [3]. Besides, the selectivity ratio stood at 1.7 in series [2] and 1.6 in series [4].
